Experimental findings from paper PMC10661964 (Current Drug Metabolism, 2023) are described below.

Read-outs that look alike come from different tables or passages of the source.

The target in one data set is T1, CYP 2C8 (Homo sapiens, UniProt P10632).
T1 sequence (P10632 1-490): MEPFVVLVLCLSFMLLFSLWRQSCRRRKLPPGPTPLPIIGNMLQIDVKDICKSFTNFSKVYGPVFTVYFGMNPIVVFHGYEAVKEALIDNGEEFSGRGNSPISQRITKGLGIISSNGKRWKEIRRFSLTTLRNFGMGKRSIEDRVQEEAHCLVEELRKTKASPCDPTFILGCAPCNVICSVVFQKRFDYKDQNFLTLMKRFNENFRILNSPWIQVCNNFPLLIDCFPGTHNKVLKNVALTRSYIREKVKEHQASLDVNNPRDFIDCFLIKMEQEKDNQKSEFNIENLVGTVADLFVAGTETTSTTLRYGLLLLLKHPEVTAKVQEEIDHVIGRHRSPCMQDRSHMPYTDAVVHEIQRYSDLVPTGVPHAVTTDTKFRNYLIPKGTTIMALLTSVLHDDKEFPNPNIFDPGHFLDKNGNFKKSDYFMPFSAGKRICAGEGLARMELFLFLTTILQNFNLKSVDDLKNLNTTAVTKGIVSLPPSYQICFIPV
Description: CYP inhibition with probe substrate. It is filed as in vitro ADME. The following applies: probe substrate amodiaquine. From the text:
(§1) The inhibition of cytochrome P450 (CYP) isoforms and a range of cellular transporters (except multidrug and toxin extrusion [MATE] proteins), as well as the induction of CYP isoforms were investigated using previously described methods.

The target of the next data set is CYP 2C9 (Homo sapiens, UniProt P11712). Description: CYP inhibition with probe substrate. As to conditions: probe substrate diclofenac. It is filed as in vitro ADME.
CYP 2C9, sequence (P11712 whole entry): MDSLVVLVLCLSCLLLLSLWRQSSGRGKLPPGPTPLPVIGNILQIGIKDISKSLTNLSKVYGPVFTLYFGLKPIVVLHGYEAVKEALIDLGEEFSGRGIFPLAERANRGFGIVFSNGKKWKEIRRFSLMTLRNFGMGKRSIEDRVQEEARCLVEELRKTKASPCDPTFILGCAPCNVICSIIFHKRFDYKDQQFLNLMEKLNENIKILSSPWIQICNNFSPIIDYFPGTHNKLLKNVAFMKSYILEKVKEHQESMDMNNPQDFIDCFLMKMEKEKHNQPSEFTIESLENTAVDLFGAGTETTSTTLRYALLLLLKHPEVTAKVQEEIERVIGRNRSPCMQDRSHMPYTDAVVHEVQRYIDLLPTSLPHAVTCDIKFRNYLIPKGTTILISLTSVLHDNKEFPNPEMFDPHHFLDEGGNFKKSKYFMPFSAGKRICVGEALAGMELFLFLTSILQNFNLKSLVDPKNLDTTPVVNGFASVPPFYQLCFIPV
From the text: as §1

In another data set the target is T2, CYP 2A6 (Homo sapiens, UniProt P11509).
T2 sequence (P11509 1-494): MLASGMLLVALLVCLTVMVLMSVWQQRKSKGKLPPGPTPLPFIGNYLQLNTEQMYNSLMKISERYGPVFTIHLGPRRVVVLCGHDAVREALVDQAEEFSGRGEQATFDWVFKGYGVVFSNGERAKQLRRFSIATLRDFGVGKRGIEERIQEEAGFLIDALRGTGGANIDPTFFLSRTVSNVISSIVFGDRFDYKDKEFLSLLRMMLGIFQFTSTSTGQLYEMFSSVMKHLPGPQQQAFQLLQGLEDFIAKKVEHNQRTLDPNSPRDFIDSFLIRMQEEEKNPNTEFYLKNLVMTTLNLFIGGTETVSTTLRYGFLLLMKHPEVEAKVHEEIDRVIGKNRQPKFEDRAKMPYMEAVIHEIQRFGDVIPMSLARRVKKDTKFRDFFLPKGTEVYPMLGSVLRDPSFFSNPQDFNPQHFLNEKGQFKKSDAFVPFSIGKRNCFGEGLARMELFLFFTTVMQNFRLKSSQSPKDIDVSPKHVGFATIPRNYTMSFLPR
Description: CYP inhibition with probe substrate. It is filed as in vitro ADME. As to conditions: coincubation, probe substrate coumarin; read-out: Co- IC50.
From the text: as §1

For the next data set, the target named is CYP 2D6 (Homo sapiens, UniProt P10635). Description: CYP inhibition with probe substrate. It is filed as in vitro ADME. As to conditions: probe substrate dextromethorphan.
CYP 2D6, sequence (P10635 whole entry): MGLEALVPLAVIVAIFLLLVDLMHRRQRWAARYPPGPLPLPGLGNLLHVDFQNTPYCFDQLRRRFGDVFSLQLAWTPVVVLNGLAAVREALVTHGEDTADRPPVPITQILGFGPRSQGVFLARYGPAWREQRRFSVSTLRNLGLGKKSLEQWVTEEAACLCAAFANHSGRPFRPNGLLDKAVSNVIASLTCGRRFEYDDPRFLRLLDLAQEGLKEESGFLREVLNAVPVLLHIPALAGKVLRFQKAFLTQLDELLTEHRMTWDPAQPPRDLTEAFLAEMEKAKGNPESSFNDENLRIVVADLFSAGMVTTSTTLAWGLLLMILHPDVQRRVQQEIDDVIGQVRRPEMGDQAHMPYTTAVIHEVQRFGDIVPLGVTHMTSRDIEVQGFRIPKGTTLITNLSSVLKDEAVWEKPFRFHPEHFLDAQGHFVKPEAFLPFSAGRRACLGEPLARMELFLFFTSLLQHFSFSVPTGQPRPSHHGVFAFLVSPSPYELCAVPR
From the text: as §1

The nature of data set [1]: Quantification of nifurtimox and metabolites in human urine (LC-HRMS). It is filed as in vivo. As to conditions: for AE,urine(0–24h), fasted patients: mean of 6 fasted patients with Chagas disease; for AE,urine(0–24h), fasted patients / AE,urine(0–24h), fed patients: single oral 120 mg nifurtimox; for AE,urine(0–24h), fed patients: mean of 6 fed patients with Chagas disease. The method, then: Urine samples were collected from fasted and fed patients pre-dose (0 h) and at four post-dose intervals (0-4, 4-8, 8-12, and 12-24 h) and stored frozen until required. For analysis, urine samples were thawed at room temperature and homogenized by vortex mixing. […] Equal volumes (75 µL) of an internal standard solution of [^2H8]-nifurtimox dissolved in water (10 µg/mL) were added to each urine, calibration, or control sample and mixed thoroughly. Samples from 6 patients were then analyzed using liquid chromatography-high-resolution mass spectrometry (LC-HRMS) with a 1290 Infinity LC system equipped with a diode array detector and an Orbitrap Fusion™ Lumos™ Tribrid™ HRMS (Thermo Fisher Scientific, Bremen, Germany) with a heated electrospray ionization source. For quantification, the LC conditions were as described above for analysis of rat plasma, and the HRMS parameters were: mass range, 120-600 Da in full scan mode and all ion fragmentation in positive ionization mode; resolution, 240,000; ion source voltage, 3500 V; capillary temperature, 300°C; source temperature, 60°C.
The system was calibrated using the relative peak area as a function of concentration, which was obtained by linear regression. Quantification was performed on a mass basis (μg/mL), with the final calculation for the percentage of dose excreted in urine made on a molar basis to account for the substantial differences (up to ~2.5-fold) in the molecular masses of the compounds of interest. The analytical precision for all analytes was in the range of 1.1% to 4.4%, with an accuracy of 94% to 107%. All concentrations in μg/mL were back-calculated to nmol/mL, and these concentrations were then used to calculate a total molar amount based on the urine volume collected during each interval.

The mark [2] stands for this setting: 30-min preincubation, read-out: Pre- IC50 (+ NADPH).
Setting [3] is: coincubation, read-out: Co- IC50.

In general, IC50 refers to the point on the concentration scale where inhibition reaches its midpoint. On to `CC1CS(=O)(=O)CCN1n1cc(SCC(N)C(=O)O)ccc1=O` (stereo not shown) [M-4], for which the half-maximal inhibitory concentration (IC50) on CYP 2C8 (setting [2]), at CYP 2C8 (setting [3]), at CYP 2C9 (setting [2]), on CYP 2C9 (setting [3]), at CYP 2A6 and on CYP 2D6 (setting [2]) was over 20 µM in each case. Also, the IC50 on CYP 2D6 (setting [3]) is over 20 µM. Besides, the “TDI (time-dependent inhibition)” value at CYP 2C8, at CYP 2C9 and on CYP 2D6 was “No” in each case. Also, in data set [1], the “AE,urine(0–24h), fasted patients” value was 5.9 % of dose. For the same compound, the “AE,urine(0–24h), fed patients” value in data set [1] is 12.3 % of dose.

Turning to `CC1CS(=O)(=O)CCN1/N=C/c1ccc([N+](=O)[O-])o1` (stereo not shown) [Nifurtimox, (E)-N-(3-methyl-1,1-dioxo-1,4-thiazinan-4-yl)-1-(5-nitrofuran-2-yl) methanimine, reference compound], the IC50 at CYP 2C8 (setting [2]), on CYP 2C8 (setting [3]), at CYP 2C9 (setting [2]), on CYP 2C9 (setting [3]), on CYP 2A6 and at CYP 2D6 (setting [2]) was over 50 µM each time. Besides, the 50% inhibitory concentration (IC50) at CYP 2D6 (setting [3]) is over 50 µM. The “TDI (time-dependent inhibition)” value at CYP 2C8, at CYP 2C9 and on CYP 2D6 was “No” each time. In addition, the “unchanged nifurtimox in urine, on average” value in data set [1] (fed and fasted patients, single oral 120 mg) is “less than 0.1 % of the administered dose”. Moreover, the “AE,urine(0–24h), fasted patients” value in data set [1] is given as 0.03 % of dose. In addition, in data set [1], the “AE,urine(0–24h), fed patients” value is 0.07 % of dose.

Consider `CC1CS(=O)(=O)CCN1N` (stereo not shown) [M-6], for which the IC50 at CYP 2C8 (setting [2]), at CYP 2C8 (setting [3]), on CYP 2C9 (setting [2]), at CYP 2C9 (setting [3]), at CYP 2A6 and on CYP 2D6 (setting [2]) was over 100 µM each time. Further, at CYP 2D6 (setting [3]), the half-inhibitory concentration (IC50) was over 100 µM. The “TDI (time-dependent inhibition)” value on CYP 2C8, at CYP 2C9 and at CYP 2D6 was “No” each time. Moreover, the “AE,urine(0–24h), fasted patients” value in data set [1] was 13.7 % of dose. In addition, the “AE,urine(0–24h), fed patients” value in data set [1] is on record as 20.8 % of dose.
